According to patent publication US20130184272A1, “DIABETES THERAPEUTIC AGENT” (TAKEDA PHARMACEUTICAL COMPANY LIMITED, priority 2010, published 2013):

How the values were obtained:
[1] = system: Mouse-derived myoblast line C2C12 cell; assay: Cell differentiation promoting activity in myoblast (creatine kinase activity); assay type: cell-based; details: Mus musculus, C2C12, 48 h, 2 days, without compound = 100%, read-out: creatine kinase activating action (%); for activity at 1 µM: compound at 1 μM; for activity at 10 µM: compound at 10 μM (*); for activity at 0.01 µM: compound at 0.01 μM (**)
Protocol: • (1) Mouse-derived myoblast line C2C12 cell (Dainippon Pharmaceutical Co., Ltd.) was subcultured in a high glucose Eagle's modified Dulbecco's medium (GIBCO) added with 10% calf fetal bovine serum (GIBCO), 100 unit/mL penicillin and 100 μg/mL streptomycin (hereinafter to be referred to as a growth medium), plated at 5000 cells/cm^2 and cultured at 37° C., under 5% CO2. • (2) When the cells reached subconfluence of not less than 90%, the medium was exchanged with high glucose Eagle's modified Dulbecco's medium (GIBCO) added with (i) 2% horse serum (GIBCO) and (ii) penicillin, streptomycin and a test compound (hereinafter to be referred to as a differentiation medium) and the cells were cultured for 2 days. To the control group was added DMSO solution instead of the test compound. • (3) The cells were washed with PBS, 0.5% NP-40 solution was added, and the cells were lysed by freeze-thawing. The cell extract was centrifuged and the creatine kinase activity in the supernatant was measured as an index of muscle differentiation. The creatine kinase activity was measured using CPKII Test Wako (Wako Pure Chemical Industries, Ltd.) according to the manual of the kit.
The numerical values in Table 1 show creatine kinase activity of the compound addition group when the creatine kinase activity without addition of the compound is 100%, and * means measurement with addition of the compound at 10 μM, ** at 0.01 μM, and others at 1 μM.

C2C12 cell = assay: Sugar metabolism promoting activity in muscle cell (lactic acid production); assay type: cell-based, Mouse; details: Mus musculus, 48 h; compound 1 μM, 2 days, C2C12 myotubes; without drug = 100%; read-out: lactic acid production promoting action (%)
Protocol: • (1) In the same manner as in Example 1, C2C12 cell was cultured in a growth medium. After reaching subconfluence of not less than 90%, the medium was exchanged with a differentiation medium and the cells were cultured for about 7 days while exchanging the medium every 2 or 3 days until the cells differentiated to form a myotube. • (2) After confirmation of myotube formation under a microscope, the test compound (1 μM) was added to a differentiation medium and cultured for 2 days. The cells were washed with Krebs-Ringer HEPES phosphate buffer (10 mM HEPES, pH 7.4, 131 mM NaCl, 4.7 mM KCl, 2.5 mM CaCl2—2H2O, 1.2 mM MgSO4—7H2O, 1.2 mM KH2PO4), the medium was exchanged with Krebs-Ringer HEPES phosphate buffer added with 5 mM glucose, 0.2% fatty acid-free bovine serum albumin, and cultured at 37° C. for 4 hr. • (3) The lactic acid concentration of the culture supernatant was measured using Detarminer LA kit (Kyowa Medex Co., Ltd.).
The numerical values in Table 2 show the concentration of the compound addition group with the concentration of lactic acid without addition of a drug as 100%.

Compound | activity at 1 µM [1] | activity at 1 µM (C2C12 cell) | activity at 10 µM [1] | activity at 0.01 µM [1]
Cn1ncc2c1-c1c(S(=O)(=O)c3ccc4c(c3)OCO4)sc(C(N)=O)c1CC2 [Ref. Ex. 39, 8-(1,3-benzodioxol-5-ylsulfonyl)-1-methyl-4,5-dihydro-1H-thieno[3,4-g]indazole-6-carboxamide] | 176% | 207% |  | 
NC(=O)c1sc(Oc2ccccc2)c2c1CCc1cn[nH]c1-2 [Ref. Ex. 20, 8-phenoxy-4,5-dihydro-1H-thieno[3,4-g]indazole-6-carboxamide] | 121% | 167% |  | 
CCCS(=O)(=O)c1sc(C(N)=O)c2c1-c1c(cnn1C)CC2 [Ref. Ex. 13, 1-methyl-8-(propylsulfonyl)-4,5-dihydro-1H-thieno[3,4-g]indazole-6-carboxamide] |  | 154% | 128% | 
CN(C)c1cccc(Oc2sc(C(N)=O)c3c2-c2c(cnn2C)CC3)c1 [Ref. Ex. 26, 8-[3-(dimethylamino)phenoxy]-1-methyl-4,5-dihydro-1H-thieno[3,4-g]indazole-6-carboxamide] | 156% | 175% |  | 
Cn1ncc2c1-c1c(Oc3ccc(OCc4ccncc4)cc3)sc(C(N)=O)c1CC2 [Ref. Ex. 23, 1-methyl-8-[4-(pyridin-4-ylmethoxy)phenoxy]-4,5-dihydro-1H-thieno[3,4-g]indazole-6-carboxamide] |  | 252% |  | 191%
COCCOc1sc(C(N)=O)c2c1-c1c(cnn1C)CC2 [Ref. Ex. 4, 8-(2-methoxyethoxy)-1-methyl-4,5-dihydro-1H-thieno[3,4-g]indazole-6-carboxamide] | 138% | 239% |  | 
COCCOc1ccc(Oc2sc(C(N)=O)c3c2-c2c(cnn2C)CC3)cn1 [Ref. Ex. 42, 8-{[6-(2-methoxyethoxy)pyridin-3-yl]oxy}-1-methyl-4,5-dihydro-1H-thieno[3,4-g]indazole-6-carboxamide] |  | 319% |  | 179%
Cn1ncc2c1-c1c(Oc3ccc(OCc4ccccn4)cc3)sc(C(N)=O)c1CC2 [Ref. Ex. 27, 1-methyl-8-[4-(pyridin-2-ylmethoxy)phenoxy]-4,5-dihydro-1H-thieno[3,4-g]indazole-6-carboxamide] |  | 198% |  | 163%
Cn1ncc2c1-c1c(Oc3ncccn3)sc(C(N)=O)c1CC2 [Ref. Ex. 37, 1-methyl-8-(pyrimidin-2-yloxy)-4,5-dihydro-1H-thieno[3,4-g]indazole-6-carboxamide] | 129% | 255% |  | 
CNC(=O)c1sc(Oc2ccccc2)c2c1CCc1cnn(C)c1-2 [Ref. Ex. 6, N,1-dimethyl-8-phenoxy-4,5-dihydro-1H-thieno[3,4-g]indazole-6-carboxamide] | 164% | 187% |  | 
CN(C)c1sc(C(N)=O)c2c1-c1c(cnn1C)CC2 [Ref. Ex. 36, 8-(dimethylamino)-1-methyl-4,5-dihydro-1H-thieno[3,4-g]indazole-6-carboxamide] | 139% | 211% |  | 
Cn1ncc2c1-c1c(OCc3ccncc3)sc(C(N)=O)c1CC2 [Ref. Ex. 5, 1-methyl-8-(pyridin-4-ylmethoxy)-4,5-dihydro-1H-thieno[3,4-g]indazole-6-carboxamide] | 113% | 124% |  | 
CCCOc1sc(C(N)=O)c2c1-c1c(cnn1C)CC2 [Ref. Ex. 3, 1-methyl-8-propoxy-4,5-dihydro-1H-thieno[3,4-g]indazole-6-carboxamide] | 179% | 170% |  | 
Cc1ccc(Oc2sc(C(N)=O)c3c2-c2c(cnn2C)CC3)cn1 [Ref. Ex. 31, 1-methyl-8-[(6-methylpyridin-3-yl)oxy]-4,5-dihydro-1H-thieno[3,4-g]indazole-6-carboxamide] |  | 253% |  | 150%
Cn1ncc2c1-c1c(Cc3ccccc3)sc(C(N)=O)c1CC2 [Ref. Ex. 16, 8-benzyl-1-methyl-4,5-dihydro-1H-thieno[3,4-g]indazole-6-carboxamide] |  | 194% |  | 150%
Cn1ncc2c1-c1c(Oc3ccc4c(c3)OCO4)sc(C(=O)NCc3ccncc3)c1CC2 [Ref. Ex. 28, 8-(1,3-benzodioxol-5-yloxy)-1-methyl-N-(pyridin-4-ylmethyl)-4,5-dihydro-1H-thieno[3,4-g]indazole-6-carboxamide] | 186% | 170% |  | 
Cn1ncc2c1-c1c(Oc3ccc(C[C@H](N)C(=O)N4CCOCC4)cc3)sc(C(N)=O)c1CC2 [Ref. Ex. 25, 8-{4-[(2S)-2-amino-3-morpholin-4-yl-3-oxopropyl]phenoxy}-1-methyl-4,5-dihydro-1H-thieno[3,4-g]indazole-6-carboxamide] | 180% | 235% |  | 
Cn1ncc2c1-c1c(Oc3ccc4c(c3)OCO4)sc(C(N)=O)c1CC2(C)C [Ref. Ex. 29, 8-(1,3-benzodioxol-5-yloxy)-1,4,4-trimethyl-4,5-dihydro-1H-thieno[3,4-g]indazole-6-carboxamide] | 183% | 264% |  | 
Cn1ncc2c1-c1c(Oc3ccc(CC(=O)O)cc3)sc(C(N)=O)c1CC2 [Ref. Ex. 24, {4-[(6-carbamoyl-1-methyl-4,5-dihydro-1H-thieno[3,4-g]indazol-8-yl)oxy]phenyl}acetic acid] | 142% | 126% |  | 
Cn1ncc2c1-c1c(Oc3ccc(OCc4ccc5ccccc5n4)cc3)sc(C(N)=O)c1CC2 [Ref. Ex. 10, 1-methyl-8-[4-(quinolin-2-ylmethoxy)phenoxy]-4,5-dihydro-1H-thieno[3,4-g]indazole-6-carboxamide] |  | 259% |  | 193%
Cn1ncc2c1-c1c(OC3CCCC3)sc(C(N)=O)c1CC2 [Ref. Ex. 17, 8-(cyclopentyloxy)-1-methyl-4,5-dihydro-1H-thieno[3,4-g]indazole-6-carboxamide] | 177% | 141% |  | 
CN(CCOc1ncccc1Oc1sc(C(N)=O)c2c1-c1c(cnn1C)CC2)c1ccccc1 [Ref. Ex. 41, 1-methyl-8-[(2-{2-[methyl(phenyl)amino]ethoxy}pyridin-3-yl)oxy]-4,5-dihydro-1H-thieno[3,4-g]indazole-6-carboxamide] | 130% | 120% |  | 
CCCCc1sc(C(N)=O)c2c1-c1c(cnn1C)CC2 [Ref. Ex. 14, 8-butyl-1-methyl-4,5-dihydro-1H-thieno[3,4-g]indazole-6-carboxamide] | 151% | 265% |  | 
Cn1ncc2c1-c1c(Oc3ccc(S(C)(=O)=O)cc3)sc(C(N)=O)c1CC2 [Ref. Ex. 19, 1-methyl-8-[4-(methylsulfonyl)phenoxy]-4,5-dihydro-1H-thieno[3,4-g]indazole-6-carboxamide] | 183% | 209% |  | 
COc1ccc(Oc2sc(C(N)=O)c3c2-c2c(cnn2C)CC3)cn1 [Ref. Ex. 35, 8-[(6-methoxypyridin-3-yl)oxy]-1-methyl-4,5-dihydro-1H-thieno[3,4-g]indazole-6-carboxamide] |  | 228% |  | 192%
Cn1ncc2c1-c1c(Oc3cccnc3N)sc(C(N)=O)c1CC2 [Ref. Ex. 32, 8-[(2-aminopyridin-3-yl)oxy]-1-methyl-4,5-dihydro-1H-thieno[3,4-g]indazole-6-carboxamide] | 101% | 295% |  | 
Cn1ncc2c1-c1c(Oc3cccnc3OCCN3CCCC3=O)sc(C(N)=O)c1CC2 [Ref. Ex. 40, 1-methyl-8-({2-[2-(2-oxopyrrolidin-1-yl)ethoxy]pyridin-3-yl}oxy)-4,5-dihydro-1H-thieno[3,4-g]indazole-6-carboxamide] | 120% | 120% |  | 
COc1cccc(Oc2sc(C(N)=O)c3c2-c2c(cnn2C)CC3)c1 [Ref. Ex. 21, 8-(3-methoxyphenoxy)-1-methyl-4,5-dihydro-1H-thieno[3,4-g]indazole-6-carboxamide] |  | 184% |  | 198%
Cn1ncc2c1-c1c(Nc3ccccc3)sc(C(N)=O)c1CC2 [Ref. Ex. 12, 1-methyl-8-(phenylamino)-4,5-dihydro-1H-thieno[3,4-g]indazole-6-carboxamide] |  |  | 162% | 
